Experimental data taken from PMC4858680, “A platinum-based hybrid drug design approach to circumvent acquired resistance to molecular targeted tyrosine kinase inhibitors” (Scientific Reports, 2016).
Like-named read-outs stand apart in the source and are kept apart here.

Experiments:
K562 = test: Anticancer activity (cytotoxicity) in CML cell line; type: cell-based
K562 Ima1.0 = test: Anticancer activity in imatinib-selected resistant K562 subline; type: cell-based; details: read-out: Anticancer activity (IC50) K562 Imatinib selected (K562 Ima1.0); Bcr-Abl amplification
CSF1R = CSF1R (Homo sapiens, UniProt P07333); details: 10 μM
[1] = target: ABL1(F317L)-nonphosphorylated (Homo sapiens, UniProt P00519, F317L); details: 10 μM
[2] = target: ABL1(E255K)-phosphorylated (Homo sapiens, UniProt P00519, E255K); details: 10 μM
[3] = target: ABL1(Q252H)-nonphosphorylated (Homo sapiens, UniProt P00519, Q252H); details: 10 μM
[4] = target: ABL1(H396P)-phosphorylated (Homo sapiens, UniProt P00519, H396P); details: 10 μM
[5] = Drug accumulation in organs of BALB/c mice; type: in vivo; details: intravenous 12.5 mg/kg, 30 min
[6] = target: T1, ABL1(T315I)-nonphosphorylated (Homo sapiens, UniProt P00519, T315I); details: 10 μM
ABL1-phosphorylated [7] = target: T2, ABL1-phosphorylated (Homo sapiens, UniProt P00519); details: 10 μM
[8] = target: ABL1(Y253F)-phosphorylated (Homo sapiens, UniProt P00519, Y253F); details: 10 μM
DDR2 = target: T3, DDR2 (Homo sapiens, UniProt Q16832); test: biochemical; details: read-out: Percent control
T3 sequence (Q16832 22-855): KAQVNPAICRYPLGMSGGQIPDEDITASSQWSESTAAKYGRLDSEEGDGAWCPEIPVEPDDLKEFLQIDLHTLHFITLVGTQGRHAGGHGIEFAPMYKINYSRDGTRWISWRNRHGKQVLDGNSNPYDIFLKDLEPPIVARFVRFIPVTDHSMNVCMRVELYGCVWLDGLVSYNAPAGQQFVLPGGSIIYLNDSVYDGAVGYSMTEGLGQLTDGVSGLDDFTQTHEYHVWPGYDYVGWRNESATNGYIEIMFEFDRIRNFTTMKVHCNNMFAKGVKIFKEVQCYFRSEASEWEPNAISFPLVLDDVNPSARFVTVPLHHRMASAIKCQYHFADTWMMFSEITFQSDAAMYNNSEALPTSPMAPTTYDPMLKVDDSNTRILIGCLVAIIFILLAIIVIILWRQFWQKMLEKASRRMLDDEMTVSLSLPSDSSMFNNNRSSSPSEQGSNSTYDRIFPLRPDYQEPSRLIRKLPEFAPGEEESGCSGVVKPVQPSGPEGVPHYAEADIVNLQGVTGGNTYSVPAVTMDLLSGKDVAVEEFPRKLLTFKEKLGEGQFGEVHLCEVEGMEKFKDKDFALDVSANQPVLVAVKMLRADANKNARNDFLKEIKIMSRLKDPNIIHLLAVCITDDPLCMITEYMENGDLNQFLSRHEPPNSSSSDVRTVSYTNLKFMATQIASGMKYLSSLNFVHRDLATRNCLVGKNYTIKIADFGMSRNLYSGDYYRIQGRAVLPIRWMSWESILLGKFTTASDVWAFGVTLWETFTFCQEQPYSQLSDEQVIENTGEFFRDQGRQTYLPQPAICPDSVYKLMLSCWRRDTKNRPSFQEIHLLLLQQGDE

TIE2 = TIE2 (Homo sapiens, UniProt Q02763); test: biochemical; details: read-out: Percent control
FRK = FRK (Homo sapiens, UniProt P42685); test: biochemical; details: read-out: Percent control
FGFR3 = FGFR3 (Homo sapiens, UniProt P22607); test: biochemical; details: read-out: Percent control
RET = RET (Homo sapiens, UniProt P07949); test: biochemical; details: read-out: Percent control
[9] = target: ABL1(E317I)-nonphosphorylated (Homo sapiens, UniProt P00519, F317I); test: biochemical; details: read-out: Percent control
ABL1-phosphorylated [10] = target: T2, ABL1-phosphorylated; test: biochemical; details: read-out: Percent control
RET(V804TL) = RET(V804TL) (Homo sapiens, UniProt P07949, V804L); test: biochemical; details: read-out: Percent control
FLT3(K663D) = target: T4, FLT3(K663D) (Homo sapiens, UniProt P36888, K663Q); test: biochemical; details: read-out: Percent control
T4 sequence (P36888 564-993 K663Q limits assumed): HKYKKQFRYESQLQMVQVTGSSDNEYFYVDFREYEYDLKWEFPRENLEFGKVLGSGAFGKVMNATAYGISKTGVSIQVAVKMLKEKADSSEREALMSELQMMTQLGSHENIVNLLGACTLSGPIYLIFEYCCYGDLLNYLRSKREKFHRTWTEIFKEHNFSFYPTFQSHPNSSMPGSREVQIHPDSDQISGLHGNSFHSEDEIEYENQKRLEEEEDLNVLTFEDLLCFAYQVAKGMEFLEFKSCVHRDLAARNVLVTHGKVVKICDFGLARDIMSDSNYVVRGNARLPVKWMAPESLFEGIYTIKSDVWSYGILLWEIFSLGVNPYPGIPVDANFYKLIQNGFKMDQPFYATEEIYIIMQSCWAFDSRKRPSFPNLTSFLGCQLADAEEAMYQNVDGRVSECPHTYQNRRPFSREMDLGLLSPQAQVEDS

ALK = ALK (Homo sapiens, UniProt Q9UM73); test: biochemical; details: read-out: Percent control
[11] = target: T1, ABL1(T315I)-nonphosphorylated; test: biochemical; details: read-out: Percent control
P-gp = P-gp (Homo sapiens, UniProt P08183); test: in vitro; details: dog, MDCK-MDR1, pH 7.4
Sequence of P-gp (P08183 whole entry): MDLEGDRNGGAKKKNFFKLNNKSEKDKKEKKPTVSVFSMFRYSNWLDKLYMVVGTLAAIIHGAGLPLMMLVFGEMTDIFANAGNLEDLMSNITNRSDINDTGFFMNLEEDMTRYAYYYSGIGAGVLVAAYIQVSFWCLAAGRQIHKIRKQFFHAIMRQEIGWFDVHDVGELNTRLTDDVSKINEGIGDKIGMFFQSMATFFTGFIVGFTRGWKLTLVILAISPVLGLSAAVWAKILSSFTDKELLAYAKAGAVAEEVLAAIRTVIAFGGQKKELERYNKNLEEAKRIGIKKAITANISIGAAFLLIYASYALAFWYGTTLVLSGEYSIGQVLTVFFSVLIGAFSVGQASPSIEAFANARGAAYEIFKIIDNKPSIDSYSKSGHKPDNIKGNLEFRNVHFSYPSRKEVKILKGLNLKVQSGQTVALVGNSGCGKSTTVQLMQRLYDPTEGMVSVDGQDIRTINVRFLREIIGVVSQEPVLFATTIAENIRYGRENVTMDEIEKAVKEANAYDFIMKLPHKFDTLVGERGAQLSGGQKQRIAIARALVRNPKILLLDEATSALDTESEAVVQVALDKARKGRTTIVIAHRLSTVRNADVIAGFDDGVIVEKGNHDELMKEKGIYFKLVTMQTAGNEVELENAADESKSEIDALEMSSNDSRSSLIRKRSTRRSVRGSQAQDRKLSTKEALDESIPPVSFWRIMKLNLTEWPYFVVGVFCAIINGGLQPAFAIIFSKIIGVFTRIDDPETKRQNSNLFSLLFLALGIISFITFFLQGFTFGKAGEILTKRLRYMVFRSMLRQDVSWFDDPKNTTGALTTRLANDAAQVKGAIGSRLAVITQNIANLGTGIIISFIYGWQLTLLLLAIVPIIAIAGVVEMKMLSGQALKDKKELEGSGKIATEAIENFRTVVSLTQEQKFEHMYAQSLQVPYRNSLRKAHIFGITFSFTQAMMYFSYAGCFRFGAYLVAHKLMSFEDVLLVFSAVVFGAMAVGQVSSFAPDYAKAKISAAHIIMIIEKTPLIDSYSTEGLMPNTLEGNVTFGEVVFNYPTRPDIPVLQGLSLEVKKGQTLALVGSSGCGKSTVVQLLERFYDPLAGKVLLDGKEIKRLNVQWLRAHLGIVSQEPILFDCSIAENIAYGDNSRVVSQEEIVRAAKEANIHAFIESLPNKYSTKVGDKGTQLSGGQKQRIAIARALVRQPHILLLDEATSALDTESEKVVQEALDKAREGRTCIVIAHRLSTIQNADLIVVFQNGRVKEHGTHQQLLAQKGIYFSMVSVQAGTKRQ

Sequence of FGFR3 (P22607 23-806): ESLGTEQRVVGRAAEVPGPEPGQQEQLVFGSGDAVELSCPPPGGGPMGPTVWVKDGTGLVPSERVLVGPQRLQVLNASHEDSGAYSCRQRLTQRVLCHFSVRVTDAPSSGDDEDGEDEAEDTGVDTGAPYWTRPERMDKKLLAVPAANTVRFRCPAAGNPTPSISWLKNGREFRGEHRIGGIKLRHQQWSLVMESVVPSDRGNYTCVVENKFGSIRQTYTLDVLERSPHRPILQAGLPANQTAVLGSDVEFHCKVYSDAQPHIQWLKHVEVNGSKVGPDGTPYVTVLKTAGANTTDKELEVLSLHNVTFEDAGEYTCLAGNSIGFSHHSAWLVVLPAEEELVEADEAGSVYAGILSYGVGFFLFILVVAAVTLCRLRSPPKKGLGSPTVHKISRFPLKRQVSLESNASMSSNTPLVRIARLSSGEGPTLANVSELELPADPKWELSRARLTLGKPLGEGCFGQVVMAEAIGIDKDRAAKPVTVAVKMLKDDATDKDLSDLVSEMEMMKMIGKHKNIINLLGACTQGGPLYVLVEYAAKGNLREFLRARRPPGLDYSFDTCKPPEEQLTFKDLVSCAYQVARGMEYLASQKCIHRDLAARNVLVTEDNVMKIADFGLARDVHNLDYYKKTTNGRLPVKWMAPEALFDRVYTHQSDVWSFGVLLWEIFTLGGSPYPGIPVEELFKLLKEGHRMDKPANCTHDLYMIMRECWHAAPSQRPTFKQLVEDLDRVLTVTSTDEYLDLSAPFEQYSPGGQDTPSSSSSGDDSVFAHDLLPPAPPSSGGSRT
Sequence of ALK (Q9UM73 19-1620): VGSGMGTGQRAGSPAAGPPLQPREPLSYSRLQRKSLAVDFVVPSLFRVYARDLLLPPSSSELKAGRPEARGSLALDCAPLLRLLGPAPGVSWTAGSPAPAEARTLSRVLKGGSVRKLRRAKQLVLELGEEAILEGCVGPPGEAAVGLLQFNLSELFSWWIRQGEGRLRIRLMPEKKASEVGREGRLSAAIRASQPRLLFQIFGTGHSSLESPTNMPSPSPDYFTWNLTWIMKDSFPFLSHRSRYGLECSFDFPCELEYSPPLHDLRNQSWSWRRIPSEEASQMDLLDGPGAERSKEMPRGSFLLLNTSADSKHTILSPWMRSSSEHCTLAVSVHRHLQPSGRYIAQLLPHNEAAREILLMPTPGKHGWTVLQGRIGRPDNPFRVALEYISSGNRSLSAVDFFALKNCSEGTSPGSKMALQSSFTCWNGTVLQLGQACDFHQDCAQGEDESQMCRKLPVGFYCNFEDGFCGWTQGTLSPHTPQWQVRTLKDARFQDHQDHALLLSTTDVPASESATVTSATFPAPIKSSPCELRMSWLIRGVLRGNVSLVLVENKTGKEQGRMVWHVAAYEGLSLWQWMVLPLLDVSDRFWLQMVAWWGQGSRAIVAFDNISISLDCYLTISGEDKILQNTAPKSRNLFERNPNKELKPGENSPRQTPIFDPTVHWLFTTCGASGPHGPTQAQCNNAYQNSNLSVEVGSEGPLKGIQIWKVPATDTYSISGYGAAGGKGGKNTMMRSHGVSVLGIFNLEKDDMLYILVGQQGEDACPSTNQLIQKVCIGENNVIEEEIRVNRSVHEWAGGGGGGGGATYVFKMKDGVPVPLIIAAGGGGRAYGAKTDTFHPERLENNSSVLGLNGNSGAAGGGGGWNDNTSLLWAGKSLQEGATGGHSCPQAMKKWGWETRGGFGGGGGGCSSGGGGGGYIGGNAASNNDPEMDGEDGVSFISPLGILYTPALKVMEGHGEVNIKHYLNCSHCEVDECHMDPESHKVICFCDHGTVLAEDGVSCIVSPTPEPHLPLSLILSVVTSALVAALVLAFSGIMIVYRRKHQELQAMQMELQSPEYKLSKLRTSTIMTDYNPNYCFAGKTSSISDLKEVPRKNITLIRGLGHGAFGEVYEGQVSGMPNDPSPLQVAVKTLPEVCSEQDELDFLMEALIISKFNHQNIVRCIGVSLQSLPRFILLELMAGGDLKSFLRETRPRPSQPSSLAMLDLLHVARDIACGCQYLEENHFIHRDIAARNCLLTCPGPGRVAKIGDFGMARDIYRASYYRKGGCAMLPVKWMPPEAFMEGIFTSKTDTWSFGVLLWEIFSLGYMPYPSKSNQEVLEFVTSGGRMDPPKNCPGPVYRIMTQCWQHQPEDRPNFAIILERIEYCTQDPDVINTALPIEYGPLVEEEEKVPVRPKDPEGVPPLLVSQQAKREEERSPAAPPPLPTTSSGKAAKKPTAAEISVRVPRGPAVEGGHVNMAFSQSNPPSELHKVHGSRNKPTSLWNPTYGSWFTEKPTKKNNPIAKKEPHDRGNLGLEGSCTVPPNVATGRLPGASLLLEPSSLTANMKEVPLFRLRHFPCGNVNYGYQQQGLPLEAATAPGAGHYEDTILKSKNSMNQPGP
Sequence of RET(V804TL) (P07949 29-1114 V804L): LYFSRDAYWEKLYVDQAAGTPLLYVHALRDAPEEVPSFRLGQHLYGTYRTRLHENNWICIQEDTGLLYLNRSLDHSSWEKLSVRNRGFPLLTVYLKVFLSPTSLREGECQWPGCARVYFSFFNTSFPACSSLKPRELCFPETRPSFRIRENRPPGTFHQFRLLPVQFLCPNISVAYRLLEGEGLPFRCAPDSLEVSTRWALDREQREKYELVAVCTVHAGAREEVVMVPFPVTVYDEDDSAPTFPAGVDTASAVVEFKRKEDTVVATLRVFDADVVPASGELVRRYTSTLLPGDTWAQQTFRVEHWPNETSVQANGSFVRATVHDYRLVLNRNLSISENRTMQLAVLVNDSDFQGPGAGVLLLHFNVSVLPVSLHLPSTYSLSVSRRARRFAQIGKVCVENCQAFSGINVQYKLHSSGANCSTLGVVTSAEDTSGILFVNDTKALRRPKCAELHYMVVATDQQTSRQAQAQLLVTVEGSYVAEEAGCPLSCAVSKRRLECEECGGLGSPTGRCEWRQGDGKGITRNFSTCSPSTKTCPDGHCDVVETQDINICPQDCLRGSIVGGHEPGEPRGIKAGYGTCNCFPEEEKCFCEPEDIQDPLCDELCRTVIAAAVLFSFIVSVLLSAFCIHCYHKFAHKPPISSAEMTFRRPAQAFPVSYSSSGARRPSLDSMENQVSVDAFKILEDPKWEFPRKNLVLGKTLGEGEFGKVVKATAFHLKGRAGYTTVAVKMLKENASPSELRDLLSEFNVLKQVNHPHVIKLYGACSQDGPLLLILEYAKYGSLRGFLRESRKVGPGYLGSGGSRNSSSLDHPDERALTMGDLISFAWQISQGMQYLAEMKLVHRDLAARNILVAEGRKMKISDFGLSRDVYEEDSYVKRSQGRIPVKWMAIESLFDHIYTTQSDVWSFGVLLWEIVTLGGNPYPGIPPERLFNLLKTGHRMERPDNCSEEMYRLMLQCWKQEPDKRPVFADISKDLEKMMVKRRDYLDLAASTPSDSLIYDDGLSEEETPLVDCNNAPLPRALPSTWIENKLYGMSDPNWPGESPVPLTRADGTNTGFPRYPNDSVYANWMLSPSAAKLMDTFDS
Sequence of RET (P07949 29-1114): as the sequence (P07949 29-1114 V804L) above, with L776V counted along it

Cc1ccc(NC(=O)c2ccc(CN3CCN(C)CC3)cc2)cc1Nc1nccc(-c2cccnc2)[n+]1[Pt-2]1([Cl])[NH2+]C2CCCCC2[NH2+]1 (centres unmarked) [1b, oxaliplatin-imatinib]
IC50 (K562; CML cell line, Bcr-Abl positive, Table 1, read-out: Anticancer activity (IC50) K562): 2270 ± 330 nM
IC50 (K562; Table 2, read-out: Anticancer activity (IC50) K562 Sensitive parental): 2270 ± 330 nM
IC50 (K562 Ima1.0): 2920 ± 930 nM

C#Cc1cccc(Nc2c3cc(OCCOC)c(OCCOC)cc3nc[n+]2[Pt@SP2-2]([NH3+])([NH3+])[Cl])c1 [2a, cisplatin-erlotinib]
Percent control (CSF1R): 91%
Percent control [1]: 61%
Percent control [2]: 9.9%
Percent control [3]: 13%
Percent control [4]: 13%
brain accumulation, times higher than that of cisplatin [5]: 7 times
brain accumulation, times higher than that of erlotinib [5]: > 3 times
Percent control [6]: 41%
Percent control (ABL1-phosphorylated [7]): 16%
Percent control [8]: 16%

COc1cc2c(Nc3ccc(Br)cc3F)ncnc2cc1OCC1CCN(C)CC1 [Vandetanib, reference compound]
remaining activity at 10 µM (DDR2): 3.1%
remaining activity at 10 µM (TIE2): 9.1%
remaining activity at 10 µM (FRK): 1.7%

C#Cc1cccc(Nc2ncnc3cc(OCCOC)c(OCCOC)cc23)c1 [Erlotinib]
remaining activity at 10 µM (FGFR3): 100%
remaining activity at 10 µM (RET): 11.5%
remaining activity at 10 µM [9]: 45.1%
remaining activity at 10 µM (ABL1-phosphorylated [10]): 0.8%
remaining activity at 10 µM (RET(V804TL)): 100%
remaining activity at 10 µM (FLT3(K663D)): 11.5%
remaining activity at 10 µM (ALK): 10.7%
remaining activity at 10 µM [11]: 5.8%
Papp A→B at 120 min, 10 μM (P-gp): 18.4 ×10⁻⁶ cm/s
Papp B→A at 120 min, 10 μM (P-gp): 74.2 ×10⁻⁶ cm/s
